Measurements as given in US20240285765A1, “PHTHALOCYANINE DYE COMPOUNDS, CONJUGATES AND METHODS OF USE THEREOF” (Rakuten Medical, Inc., priority 2021, published 2024).

Tests used:
[1] = Singlet oxygen quantum yield, indirect method with chemical quencher (DPBF or ADMA); assay type: physicochemical
Source text: Photogeneration quantum yields of singlet oxygen (ΦΔ) were obtained by an indirect method, using either diphenylisobenzofuran (DBPF) or anthracene-9,10-bis-methylmalonate (ADMA) as chemical quenchers in either N,N-dimethylformamide or aqueous media, respectively. Typically, a solution of the phthalocyanine and the quencher was irradiated with a red LED lamp (670 nm) at 5 mW/cm^2. The initial DPBF or ADMA concentrations were kept the same for both the reference and the test samples. The degradation of the DPBF band at 414 nm or ADMA at 401 nm was monitored in a Varian Cary® 50 UV-Vis spectrophotometer, every five seconds in the case of DPBF (up to 30 seconds) and every minute in the case of ADMA (up to five minutes). ZnPc (ΦΔ=0.67) and AlPcSmix (ΦΔ=0.42) were used as references in N,N-dimethylformamide or aqueous media, respectively.
The relative method shown by Eq. (1) was employed for calculations of the ΦΔ:
[formula] • where ΦΔ and ΦΔref are the ^1O2 generation quantum yields for the sample and reference, respectively, m and mref are the DPBF or ADMA photobleaching rates in the presence of the phthalocyanine of the invention and the reference, respectively, and I and Iref are the rates of light absorption by the phthalocyanine derivative and reference, respectively. Concentrations of the test compound and reference were chosen such that their respective absorptions at the irradiation wavelength were the same.

[2] = Kinetic (aqueous) solubility in pH 7.4 DPBS, UV quantification; conditions: for solubility kinetic at 4 h: pH 7.4, aqueous buffer, kinetic from dmso stock; for Solubility* (kinetic solubility): pH 7.4 DPBS, 4 hours, room temperature (25° C.)
[3] = quencher ADMA, aqueous media, 670 nm LED 5 mW/cm^2, reference AlPcSmix

Row | Compound | ΦΔ (singlet oxygen quantum yield) [1, 3] | Solubility* (kinetic solubility) [2] | solubility kinetic at 4 h ([2]; 25 °C) [µg/mL] | other results
1 | COCCOCCOCC(=O)NCCC[Si](C)(C)O[Si-2]123(O[Si](C)(C)CCCNC(=O)CCCCC(=O)O)n4c5c6ccccc6c4N=C4c6ccccc6C(=[N+]41)N=c1c4ccccc4c(n12)=NC1=[N+]3C(=N5)c2ccccc21 [Example 1, 6-((3-(dimethyl((19-((15-methyl-10-oxo-2,5,8-trioxa-11-aza-15-silahexadecan-15-yl)oxy)-19H-6,11-(azeno)-17,21-(azeno[3]episoindoloazeno)benzo[7,8][1,3,5,10]tetraaza[2]silacycloundecino[4,3-a:11,1-a′]diisoindol-19-yl)oxy)silyl)propyl)amino)-6-oxohexanoic acid] | – | – | – | ΦΔ (singlet oxygen quantum yield) ([1]; quencher DPBF, N,N-dimethylformamide, 670 nm LED 5 mW/cm^2, reference ZnPc): A (A: ≤0.5)
2 | COCCOCCOCCN(CCCOC(=O)NCCC[Si](C)(C)O[Si-2]123(O[Si](C)(C)CCCNC(=O)COCC(=O)O)n4c5c6ccccc6c4N=C4c6ccccc6C(=[N+]41)N=c1c4ccccc4c(n12)=NC1=[N+]3C(=N5)c2ccccc21)CCOCCOCCOC [Example 3, 2-(2-((3-(((19-((11-(2-(2-(2-methoxyethoxy)ethoxy)ethyl)-21-methyl-16-oxo-2,5,8,15-tetraoxa-11,17-diaza-21-siladocosan-21-yl)oxy)-19H-6,11-(azeno)-17,21-(azeno[3]episoindoloazeno)benzo[7,8][1,3,5,10]tetraaza[2]silacycloundecino[4,3-a:11,1-a′]diisoindol-19-yl)oxy)dimethylsilyl)propyl)amino)-2-oxoethoxy)acetic acid] | – | – | – | solubility kinetic at 4 h ([2]; Dulbecco's phosphate-buffered saline (DPBS), pH 7.4, 25 °C): < 1 µg/mL
3 | C[Si](C)(CCCNC(=O)CCC[N+](CCCS(=O)(=O)[O-])(CCCS(=O)(=O)O)CCCS(=O)(=O)O)O[Si]1(O[Si](C)(C)CCCNC(=O)COCC(=O)O)n2c3c4ccccc4c2N=C2N=C(N=c4c5ccccc5c(n41)=NC1=NC(=N3)c3ccccc31)c1ccccc12.N (stereo not drawn) [Example 5, Ammonium 3-((4-((3-(((19-(((3-(2-(carboxymethoxy)acetamido)propyl)dimethylsilyl)oxy)-19H-6,11-(azeno)-17,21-(azeno[3]episoindoloazeno)benzo[7,8][1,3,5,10]tetraaza[2]silacycloundecino[4,3-a:11,1-a′]diisoindol-19-yl)oxy)dimethylsilyl)propyl)amino)-4-oxobutyl)bis(3-sulfopropyl)ammonio)propane-1-sulfonate] | B (B: >0.5) | – | – | –
4 | C[Si](C)(CCCNC(=O)COCC(=O)O)O[Si]1(O[Si](C)(C)CCCNC(=O)NCCS(=O)(=O)O)n2c3c4ccccc4c2N=C2N=C(N=c4c5ccccc5c(n41)=NC1=NC(=N3)c3ccccc31)c1ccccc12.N (stereo not drawn) [Example 7, Ammonium 2-(2-((3-(((19-((dimethyl(3-(3-(2-sulfonatoethyl)ureido)propyl)silyl)oxy)-19H-6,11-(azeno)-17,21-(azeno[1]episoindoloazeno)benzo[7,8][1,3,5,10]tetraaza[2]silacycloundecino[4,3-a:11,1-a′]diisoindol-19-yl)oxy)dimethylsilyl)propyl)amino)-2-oxoethoxy)acetate] | – | A (A: ≤1 μg/mL) | – | –
5 | C[Si](C)(CCCNC(=O)COCC(=O)O)O[Si]1(O[Si](C)(C)CCCNC(=O)NCC(S(=O)(=O)O)S(=O)(=O)O)n2c3c4ccccc4c2N=C2N=C(N=c4c5ccccc5c(n41)=NC1=NC(=N3)c3ccccc31)c1ccccc12.N (stereo not drawn) [Example 8, Ammonium 2-(2-((3-(((19-(((3-(3-(2,2-disulfonatoethyl)ureido)propyl)dimethylsilyl)oxy)-19H-6,11-(azeno)-17,21-(azeno[1]episoindoloazeno)benzo[7,8][1,3,5,10]tetraaza[2]silacycloundecino[4,3-a:11,1-a′]diisoindol-19-yl)oxy)dimethylsilyl)propyl)amino)-2-oxoethoxy)acetate] | – | A (A: ≤1 μg/mL) | – | –
6 | C[Si](C)(CCCNC(=O)CCCN(CCCS(=O)(=O)O)CCCS(=O)(=O)O)O[Si]1(O[Si](C)(C)CCCNC(=O)COCC(=O)O)n2c3c4ccccc4c2N=C2N=C(N=c4c5ccccc5c(n41)=NC1=NC(=N3)c3ccccc31)c1ccccc12.N (stereo not drawn) [Example 15, Ammonium 2-(2-((3-(((19-(((3-(4-(bis(3-sulfonatopropyl)ammonio)butanamido)propyl)dimethylsilyl)oxy)-19H-6,11-(azeno)-17,21-(azeno[1]episoindoloazeno)benzo[7,8][1,3,5,10]tetraaza[2]silacycloundecino[4,3-a:11,1-a′]diisoindol-19-yl)oxy)dimethylsilyl)propyl)amino)-2-oxoethoxy)acetate] | – | B (B: >1 μg/mL to ≤100 μg/mL) | – | –
7 | C[Si](C)(CCC[N+](CCCCS(=O)(=O)O)(CCCCS(=O)(=O)O)CCCCS(=O)(=O)O)O[Si-2]123(O[Si](C)(C)CCC[N+](CCCCS(=O)(=O)O)(CCCCS(=O)(=O)O)CCOCCOCCOCCC(=O)O)n4c5c6ccccc6c4N=C4c6ccccc6C(=[N+]41)N=c1c4ccccc4c(n12)=NC1=[N+]3C(=N5)c2ccccc21.[Na+].[Na+].[Na+].[Na+] [Example 17, Sodium 2-((19-((dimethyl(3-(tris(4-sulfonatobutyl)ammonio)propyl)silyl)oxy)-19H-6,11-(azeno)-17,21-(azeno[3]episoindoloazeno)benzo[7,8][1,3,5,10]tetraaza[2]silacycloundecino[4,3-a:11,1-a′]diisoindol-19-yl)oxy)-2-methyl-6,6-bis(4-sulfonatobutyl)-9,12,15-trioxa-6-aza-2-silaoctadecan-6-ium-18-oate] | B (B: >0.5) | – | > 100 | –
8 | C[Si](C)(CCC[N+](CCCCS(=O)(=O)[O-])(CCCCS(=O)(=O)[O-])CCCCS(=O)(=O)[O-])O[Si@@]1(O[Si](C)(C)CCC[N+](CCCCS(=O)(=O)[O-])(CCCCS(=O)(=O)[O-])CCOCCOCCC(=O)[O-])n2c3c4ccccc4c2/N=C2N=C(/N=c4/c5ccccc5/c(n41)=N/C1=NC(=N\3)/c3ccccc31)c1ccccc1\2.[Na+].[Na+].[Na+].[Na+] [Example 18, Sodium 2-((19-((dimethyl(3-(tris(4-sulfonatobutyl)ammonio)propyl)silyl)oxy)-19H-6,11-(azeno)-17,21-(azeno[3]episoindoloazeno)benzo[7,8][1,3,5,10]tetraaza[2]silacycloundecino[4,3-a:11,1-a′]diisoindol-19-yl)oxy)-2-methyl-6,6-bis(4-sulfonatobutyl)-9,12-dioxa-6-aza-2-silapentadecan-6-ium-15-oate] | B (B: >0.5) | – | > 100 | –
9 | C[Si](C)(CCC[N+](CCCS(=O)(=O)[O-])(CCCS(=O)(=O)[O-])CCCS(=O)(=O)[O-])O[Si@@]1(O[Si](C)(C)CCC[N+](CCCS(=O)(=O)[O-])(CCCS(=O)(=O)[O-])CCOCCOCCOCCC(=O)[O-])n2c3c4ccccc4c2/N=C2N=C(/N=c4/c5ccccc5/c(n41)=N/C1=NC(=N\3)/c3ccccc31)c1ccccc1\2.[Na+].[Na+].[Na+].[Na+] [Example 19, Sodium 2-((19-((dimethyl(3-(tris(3-sulfonatopropyl)ammonio)propyl)silyl)oxy)-19H-6,11-(azeno)-17,21-(azeno[3]episoindoloazeno)benzo[7,8][1,3,5,10]tetraaza[2]silacycloundecino[4,3-a:11,1-a′]diisoindol-19-yl)oxy)-2-methyl-6,6-bis(3-sulfonatopropyl)-9,12,15-trioxa-6-aza-2-silaoctadecan-6-ium-18-oate] | B (B: >0.5) | – | > 100 | –
